Patent publication US20190167771A1, “CONTROL ANGIOGENESIS BY REGULATING PHOSPHORYLATION OF SERYL-tRNA SYNTHETASE (SerRS)” (The Scripps Research Institute, priority 2016, published 2019)

system: Vegfa; assay: Vegfa mRNA by qRT-PCR in zebrafish embryos with SerRS knockdown and mRNA co-injection; format: in vivo; conditions: human SerRS mRNA co-injected with SerRS-MO, 3 dpf
Description: In FIG. 2A, wild type SerRS (SerRS^WT), its mutants with double substitutions of serine 101 and 241 with alanine or aspartic acid residues (SerRS^S101A/S241A and SerRS^S101D/S241D), or empty vector were transfected into HEK293 cells. The expression levels of SerRS proteins was measured by immunoblot (bottom) and VEGFA expression was determined by qRT-PCR (means±SEM from three independent experiments; ***P<0.0001). In FIGS. 2B-D, the roles of SerRS^S101A/S241A and SerRS^S101D/S241D in regulating vascular development in vivo in zebrafish were examined by co-injection of SerRS^S101A/S241A and SerRS^S101D/S241D mRNAs into one-cell-stage embryos whose endogenous SerRS was knocked down by injection of antisense morpholino (SerRS-MO) that led to abnormal high expression of Vegfa and hypervascularization (shown by short bold arrows in FIG. 2C). At 3 day post fertilization (dpf), embryos were harvested and Vegfa expression levels were measured by qRT-PCR (means±SEM, n=125-211; *P<0.01, **P<0.001) (B). The development of intersegmental vessel (ISV) at 3 dpf was examined (C) and the statistics of ISV abnormal branching rescued by SerRS^WT or mutant SerRS mRNA injections was analyzed (D; χ^2-test,* P>0.05 vs SerRS^WT, **P>0.1 vs SerRS-MO, ***P<1×10^−28 vs control-MO). In FIG. 2E, the binding affinities of SerRS^WT or SerRS^S101D/S241D with ^32P labeled DNA fragments corresponding to SerRS binding site on human VEGFA promoter were examined by EMSA. In FIG. 2F, the binding of SerRS^WT, SerRS^S101A/S241A, or SerRS^S101D/S241D on VEGFA promoter in HEK293 cells was examined by chromatin immunoprecipitation (ChIP) and qPCR (means±SEM from two independent experiments; ***P<0.0001). In FIG. 2G, the binding of endogenous SerRS on VEGFA promoter during hypoxia course was monitored by ChIP (means±SEM from three independent experiments; *P<0.05, **P<0.005 vs normal).
Total RNA was isolated from cells and zebrafish embryos by TRIzol Reagent (ThermoFisher Scientific). […] of the total RNA from each sample was reversely transcribed to cDNA by M-MLV reverse transcriptase (Promega, Madison, Wis., USA). All real-time PCR reactions were performed using the StepOnePlus Real-Time PCR system (ThermoFisher Scientific) with SYBR Select Master Mix ThermoFisher Scientific). […]

For “SerRS^S101A/S241A: phosphorylation-deficient human SerRS double mutant, serine 101 and 241 to alanine, SEQ ID NO: 4 (mouse version in matrigel assay)”, which “rescue of Vegfa mRNA increase caused by SerRS-MO” value is on record?
The value was “rescued or largely rescued”.

“SerRS^S101D/S241D: SerRS with double substitutions of S101 and S241 with aspartic acid, mimics the phosphorylated SerRS” was tested. Which “rescue of Vegfa mRNA increase caused by SerRS-MO” value did it give?
The value was “no rescue effect at all”.

Which “rescue of Vegfa mRNA increase caused by SerRS-MO” value does the source give for “SerRS^WT: wildtype human seryl-tRNA synthetase protein, SEQ ID NO: 1 (mouse wild type used in the 3B11 matrigel assay)” here?
Its value is “rescued or largely rescued”.
